This is an account of results in patent US8318949B2, “Organic compounds” (Novartis AG, priority 2008, dated 2012).

Structures are written as SMILES.

Broadly, the melting point is the temperature of the solid-liquid transition. The compound `Cc1nc(-n2cnn(Cc3ccc(F)cc3)c2=O)sc1C(N)=O` [Example 1, 2-(1-(4-fluorobenzyl)-5-oxo-1H-1,2,4-triazol-4(5H)-yl)-4-methylthiazole-5-carboxamide] gave a melting point of 232 to 233 °C. Consider `Cc1nc(-n2cnn(CC3CC3)c2=O)sc1C(N)=O` [Example 1.1, 2-[1-(cyclopropylmethyl)-5-oxo-1H-1,2,4-triazol-4(5H)-yl]-4-methylthiazole-5-carboxamide], for which the melting point is 180 to 181 °C. For `Cc1nc(N2CCN(Cc3ccc(C(F)(F)F)cc3)C2=O)sc1C(N)=O` [Example 1.2, 4-methyl-2-{2-oxo-3-[4-(trifluoromethyl)benzyl]imidazolidin-1-yl}thiazole-5-carboxamide], the melting point lay in the range of 216 to 217 °C. Compound `Cc1nc(N2C[C@H](C)N(Cc3ccc(F)cc3)C2=O)sc1C(N)=O` [Example 1.3, (S)-2-(3-(4-fluorobenzyl)-4-methyl-2-oxoimidazolidin-1-yl)-4-methylthiazole-5-carboxamide] yielded a melting point of 192 to 194 °C. Take `Cc1nc(N2CCN(CC3CC3)C2=O)sc1C(N)=O` [Example 1.5, 2-(3-(cyclopropylmethyl)-2-oxoimidazolidin-1-yl)-4-methylthiazole-5-carboxamide]: the melting point was in the range of 198 to 200 °C. As to `Cc1nc(N2CCN(CC(C)C)C2=O)sc1C(N)=O` [Example 1.6, 2-(3-isobutyl-2-oxoimidazolidin-1-yl)-4-methylthiazole-5-carboxamide], the melting point lay within 212 to 215 °C. For `Cc1nc(N2CCN(Cc3ccc(F)c(F)c3)C2=O)sc1C(N)=O` [Example 1.7, 2-(3-(3,4-difluorobenzyl)-2-oxoimidazolidin-1-yl)-4-methylthiazole-5-carboxamide] the value was 221 to 223 °C; for `Cc1nc(N2CCN(Cc3cc(F)cc(F)c3)C2=O)sc1C(N)=O` [Example 1.8, 2-(3-(3,5-difluorobenzyl)-2-oxoimidazolidin-1-yl)-4-methylthiazole-5-carboxamide], above 200 °C; for `Cc1nc(N2CCN(Cc3ccc(OC(F)(F)F)cc3)C2=O)sc1C(N)=O` [Example 1.9, 4-methyl-2-(2-oxo-3-(4-(trifluoromethoxy)benzyl)imidazolidin-1-yl)thiazole-5-carboxamide], 185 to 187 °C. The compound `Cc1nc(N2CCN(Cc3ccc(C(F)(F)F)nc3)C2=O)sc1C(N)=O` [Example 1.10, 4-methyl-2-(2-oxo-3-((6-(trifluoromethyl)pyridine-3-yl)methyl)imidazolidin-1-yl)thiazole-5-carboxamide] returned a melting point of 225 to 228 °C.

Compound `COc1ccc(CN2CCN(c3nc(C)c(C(N)=O)s3)C2=O)cc1F` [Example 1.11, 2-(3-(3-fluoro-4-methoxybenzyl)-2-oxoimidazolidin-1-yl)-4-methylthiazole-5-carboxamide] yielded a melting point of 182 to 184 °C. `Cc1nc(N2C(=O)N(Cc3ccc(F)cc3)C[C@@H]2C)sc1C(N)=O` [Example 1.12, (S)-2-(3-(4-fluorobenzyl)-5-methyl-2-oxoimidazolidin-1-yl)-4-methylthiazole-5-carboxamide]: the melting point lay within 197 to 198 °C.

As to `Cc1nc(N2CCN(Cc3ccc(Cl)cc3)C2=O)sc1C(N)=O` [Example 1.13, 2-(3-(4-chlorobenzyl)-2-oxoimidazolidin-1-yl)-4-methylthiazole-5-carboxamide], the melting point was above 200 °C. Turning to `Cc1nc(N2C[C@@H](C)N(Cc3cc(F)cc(F)c3)C2=O)sc1C(N)=O` [Example 1.14, (R)-2-(3-(3,5-difluorobenzyl)-4-methyl-2-oxoimidazolidin-1-yl)-4-methylthiazole-5-carboxamide], the melting point was in the range of 212 to 213 °C.

As for `Cc1nc(N2C[C@@H](C)N(Cc3ccc(F)cc3)C2=O)sc1C(N)=O` [Example 1.15, (R)-2-(3-(4-fluorobenzyl)-4-methyl-2-oxoimidazolidin-1-yl)-4-methylthiazole-5-carboxamide], the melting point was 185 to 186 °C.
